Laboratory results reported in patent US20260159536A1, “AKR1C3-ACTIVATED DNA ALKYLATING AGENT, AND MEDICAL APPLICATION THEREOF” (ASCENTAWITS PHARMACEUTICALS, LTD., priority 2021, published 2026).

Tested on: human liver cancer HepG2 cells
Assay: In vivo pharmacodynamics, liver cancer HepG2 CDX model
Parameters: species or system BALB/c nude mice
Details: for Tumor volume (x ± S): in mm³ (unit assumed)
[1] = 1.25 mg/kg, QDx5, 2 days off, 2 weeks off, QDx5, i.p., Day 53
[2] = 2.5 mg/kg, QDx5, 2 days off, 2 weeks off, QDx5, i.p., Day 53
[3] = 5 mg/kg, QDx5, 2 days off, 2 weeks off, QDx5, i.p., Day 53
[4] = 5 mg/kg, QWx2, 1 week off, QWx2, i.v., Day 53
[5] = 10 mg/kg, QWx2, 1 week off, QWx2, i.v., Day 53

Description: Experiment Instruction: BALB/c nude mice were subcutaneously inoculated with human liver cancer HepG2 cells to establish a subcutaneous transplantation tumor model of human liver cancer. […] The efficacy was evaluated according to the relative tumor inhibition rate TGI (%), and the safety was evaluated according to the change in body weight and the death of the animals.

O=[N+]([O-])c1ccc(C(OP(=O)(N2CC2)N2CC2)C(F)(F)F)cc1Oc1ccc(-c2ccc(F)cc2)c(F)c1 (racemic) [Compound A]
Tumor volume (1.25 mg/kg i.p., Day 31): 366.64 mm^3 | Tumor volume (1.25 mg/kg i.p., Day 36): 416.27 mm^3 | Tumor volume (1.25 mg/kg i.p., Day 39): 586.80 mm^3 | Tumor volume (1.25 mg/kg i.p., Day 42): 782.39 mm^3 | Tumor volume (1.25 mg/kg i.p., Day 46): 886.97 mm^3 | Tumor volume (1.25 mg/kg i.p., Day 49): 975.41 mm^3 | Tumor volume (1.25 mg/kg i.p., Day 53): 1066.23 mm^3 | Relative tumor volume (x ± S) [1]: 5.57 ± 1.26 | T/C (%) [1]: 47.03% | TGI (%) [1]: 52.97% | Tumor volume (x ± S) [1]: 1066.23 ± 252.18 | Tumor volume (2.5 mg/kg i.p., Day 19): 189.31 mm^3 | Tumor volume (2.5 mg/kg i.p., Day 22): 292.03 mm^3 | Tumor volume (2.5 mg/kg i.p., Day 24): 360.14 mm^3 | Tumor volume (2.5 mg/kg i.p., Day 27): 373.23 mm^3 | Tumor volume (2.5 mg/kg i.p., Day 31): 405.67 mm^3 | Tumor volume (2.5 mg/kg i.p., Day 36): 392.90 mm^3 | Tumor volume (2.5 mg/kg i.p., Day 39): 342.04 mm^3 | Tumor volume (2.5 mg/kg i.p., Day 42): 399.84 mm^3 | Tumor volume (2.5 mg/kg i.p., Day 46): 417.54 mm^3 | Tumor volume (2.5 mg/kg i.p., Day 49): 456.60 mm^3 | Tumor volume (2.5 mg/kg i.p., Day 53): 417.76 mm^3 | Relative tumor volume (x ± S) [2]: 2.19 ± 0.52 | T/C (%) [2]: 18.46% | TGI (%) [2]: 81.54% | Tumor volume (x ± S) [2]: 417.76 ± 105.16 | euthanasia owing to BWL>20% (5 mg/kg QDx5, 2 days off, 2 weeks off, QDx5, i.p. (Group 7)): one mouse was euthanized | death (5 mg/kg QWx2, 1 week off, QWx2, i.v. (Group 3)): one mouse in this group suffered death | Tumor volume (5 mg/kg i.p., Day 19): 189.64 mm^3 | Tumor volume (5 mg/kg i.p., Day 22): 259.29 mm^3 | Tumor volume (5 mg/kg i.p., Day 24): 280.24 mm^3 | Tumor volume (5 mg/kg i.p., Day 27): 286.22 mm^3 | Tumor volume (5 mg/kg i.p., Day 31): 290.75 mm^3 | Tumor volume (5 mg/kg i.p., Day 36): 293.88 mm^3 | Tumor volume (5 mg/kg i.p., Day 39): 247.49 mm^3 | Tumor volume (5 mg/kg i.p., Day 42): 224.58 mm^3 | Tumor volume (5 mg/kg i.p., Day 46): 215.32 mm^3 | Tumor volume (5 mg/kg i.p., Day 49): 234.89 mm^3 | Tumor volume (5 mg/kg i.p., Day 53): 189.84 mm^3 | Tumor volume (5 mg/kg i.v., Day 19): 191.48 mm^3 | Tumor volume (5 mg/kg i.v., Day 22): 315.19 mm^3 | Tumor volume (5 mg/kg i.v., Day 24): 360.12 mm^3 | Tumor volume (5 mg/kg i.v., Day 27): 390.21 mm^3 | Tumor volume (5 mg/kg i.v., Day 31): 373.82 mm^3 | Tumor volume (5 mg/kg i.v., Day 36): 314.44 mm^3 | Tumor volume (5 mg/kg i.v., Day 39): 283.08 mm^3 | Tumor volume (5 mg/kg i.v., Day 42): 276.88 mm^3 | Tumor volume (5 mg/kg i.v., Day 46): 233.11 mm^3 | Tumor volume (5 mg/kg i.v., Day 49): 145.58 mm^3 | Tumor volume (5 mg/kg i.v., Day 53): 136.44 mm^3 | Relative tumor volume (x ± S) [3]: 0.99 ± 0.38 | T/C (%) [3]: 8.33% | TGI (%) [3]: 91.67% | Tumor volume (x ± S) [3]: 189.84 ± 72.81 | Relative tumor volume (x ± S) [4]: 0.70 ± 0.34 | T/C (%) [4]: 5.92% | TGI (%) [4]: 94.08% | Tumor volume (x ± S) [4]: 136.44 ± 66.47 | weight loss or death (10 mg/kg i.v. (Group 4) and 2.5 mg/kg i.p. (Group 6)): did not cause severe weight loss or death | Tumor volume (10 mg/kg i.v., Day 19): 191.97 mm^3 | Tumor volume (10 mg/kg i.v., Day 22): 314.32 mm^3 | Tumor volume (10 mg/kg i.v., Day 24): 375.81 mm^3 | Tumor volume (10 mg/kg i.v., Day 27): 427.75 mm^3 | Tumor volume (10 mg/kg i.v., Day 31): 386.68 mm^3 | Tumor volume (10 mg/kg i.v., Day 36): 347.85 mm^3 | Tumor volume (10 mg/kg i.v., Day 39): 312.31 mm^3 | Tumor volume (10 mg/kg i.v., Day 42): 252.78 mm^3 | Tumor volume (10 mg/kg i.v., Day 46): 197.45 mm^3 | Tumor volume (10 mg/kg i.v., Day 49): 142.21 mm^3 | Tumor volume (10 mg/kg i.v., Day 53): 88.20 mm^3 | Relative tumor volume (x ± S) [5]: 0.45 ± 0.15 | T/C (%) [5]: 3.83% | TGI (%) [5]: 96.17% | Tumor volume (x ± S) [5]: 88.20 ± 29.95 | complete cure (one mouse in each of Groups 3, 4, 7): completely cured
